Laboratory results from patent publication US8575186B2, “Epiminocycloalkyl[b] indole derivatives as serotonin sub-type 6 (5-HT6) modulators and uses thereof” (Albany Molecular Research, Inc., priority 2009, dated 2013).
Like-named read-outs stand apart in the source and are kept apart here.

Experiments:
human 5-HT6 receptor = human 5-HT6 receptor (Homo sapiens (Human), UniProt P50406); assay: radioligand binding assay (SPA format), [N-methyl-3H]-LSD; details: read-out: human 5HT6 Ki, human 5-HT6 receptor membranes, 10 nM [3H]-LSD
Chain of human 5-HT6 receptor (P50406 whole entry): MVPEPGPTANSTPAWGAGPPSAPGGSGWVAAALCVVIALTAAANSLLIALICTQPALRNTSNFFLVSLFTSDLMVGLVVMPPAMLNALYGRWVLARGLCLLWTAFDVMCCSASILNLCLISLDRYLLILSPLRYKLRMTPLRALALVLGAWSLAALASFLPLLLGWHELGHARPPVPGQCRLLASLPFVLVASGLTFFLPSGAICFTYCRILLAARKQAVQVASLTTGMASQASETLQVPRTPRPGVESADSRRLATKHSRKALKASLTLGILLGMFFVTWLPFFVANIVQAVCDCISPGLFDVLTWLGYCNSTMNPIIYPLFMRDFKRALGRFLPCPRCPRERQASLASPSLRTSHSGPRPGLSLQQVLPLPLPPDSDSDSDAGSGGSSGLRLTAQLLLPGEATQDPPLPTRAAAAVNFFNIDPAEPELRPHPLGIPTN

Cl.Cn1c2c(c3cc(S(=O)(=O)c4cc(F)cc(F)c4)ccc31)C1CCC(C2)N1 (centres unmarked) [Example 55, 2-(3,5-Difluorophenyl)sulfonyl-5-methyl-5,6,7,8,9,10-hexahydro-7,10-epiminocyclohepta[b]indole hydrochloride]
melting point: 230 to 235 °C (dec.)
Ki (human 5-HT6 receptor): 8.5 nM

COc1ccc(S(=O)(=O)c2ccc3c(c2)c2c(n3C)CC3CCC2N3)cc1.Cl (centres unmarked) [Example 31, 2-(4-Methoxyphenyl)sulfonyl-5-methyl-5,6,7,8,9,10-hexahydro-7,10-epiminocyclohepta[b]indole hydrochloride]
melting point: 210 to 212 °C
Ki (human 5-HT6 receptor): 44 nM

Cl.Cn1c2c(c3cc(S(=O)(=O)c4ccccc4)cc(Cl)c31)C1CCC(C2)N1 (centres unmarked) [Example 82, 2-Phenylsulfonyl-4-chloro-5-methyl-5,6,7,8,9,10-hexahydro-7,10-epiminocyclohepta[b]indole hydrochloride]
melting point: 258 to 264 °C (dec.)
Ki (human 5-HT6 receptor): 22 nM

Cl.Cn1c2c(c3cc(S(=O)(=O)c4cccc(N)c4)ccc31)C1CCC(C2)N1 (centres unmarked) [Example 44, 2-(3-Aminophenyl)sulfonyl-5-methyl-5,6,7,8,9,10-hexahydro-7,10-epiminocyclohepta[b]indole hydrochloride]
melting point: 220 to 222 °C
Ki (human 5-HT6 receptor): 6.3 nM

Cl.Cn1c2c(c3cc(S(=O)(=O)c4cccc(OC(F)F)c4)ccc31)C1CCC(C2)N1 (centres unmarked) [Example 40, 2-(3-Difluoromethoxyphenyl)sulfonyl-5-methyl-5,6,7,8,9,10-hexahydro-7,10-epiminocyclohepta[b]indole hydrochloride]
melting point: 186 to 190 °C (dec.)
Ki (human 5-HT6 receptor): 5.8 nM

CC(C)Nc1cccc(S(=O)(=O)c2ccc3c(c2)c2c(n3C)CC3CCC2N3)c1.Cl (centres unmarked) [Example 47, 2-[(3-N-Isopropylamino)phenyl]sulfonyl-5-methyl-5,6,7,8,9,10-hexahydro-7,10-epiminocyclohepta[b]indole hydrochloride]
melting point: 208 to 212 °C (dec.)
Ki (human 5-HT6 receptor): 11 nM

Cl.Cn1c2c(c3cc(S(=O)(=O)c4cccc5ccccc45)ccc31)C1CCC(C2)N1 (centres unmarked) [Example 49, 2-(1-Napthyl)sulfonyl-5-methyl-5,6,7,8,9,10-hexahydro-7,10-epiminocyclohepta[b]indole hydrochloride]
melting point: 229 to 231 °C
Ki (human 5-HT6 receptor): 1.4 nM

Cc1cc(S(=O)(=O)c2cncnc2)cc2c3c(n(C)c12)CC1CCC3N1.Cl (centres unmarked) [Example 78, 2-(5-Pyrimidine)sulfonyl-4,5-dimethyl-5,6,7,8,9,10-hexahydro-7,10-epiminocyclohepta[b]indole]
melting point: 226 to 228 °C
Ki (human 5-HT6 receptor): 794 nM

Cl.Cn1c2c(c3cc(S(=O)(=O)c4ccccn4)ccc31)C1CCC(C2)N1 (centres unmarked) [Example 60, 2-(2-Pyridine)sulfonyl-5-methyl-5,6,7,8,9,10-hexahydro-7,10-epiminocyclohepta[b]indole hydrochloride]
melting point: 222 to 225 °C
Ki (human 5-HT6 receptor): 193 nM

Cl.Cn1c2c(c3cc(S(=O)(=O)c4cccc(O)c4)ccc31)C1CCC(C2)N1 (centres unmarked) [Example 42, 2-(3-Hydroxyphenyl)sulfonyl-5-methyl-5,6,7,8,9,10-hexahydro-7,10-epiminocyclohepta[b]indole hydrochloride]
melting point: 208 to 212 °C
Ki (human 5-HT6 receptor): 11 nM

Cc1cccc(S(=O)(=O)c2ccc3c(c2)c2c(n3C)CC3CCC2N3)c1.Cl (centres unmarked) [Example 37, 2-(3-Methylphenyl)sulfonyl-5-methyl-5,6,7,8,9,10-hexahydro-7,10-epiminocyclohepta[b]indole hydrochloride]
melting point: 194 to 196 °C
Ki (human 5-HT6 receptor): 3.7 nM

Cl.Cn1c2c(c3cc(S(=O)(=O)c4ccc(Cl)cc4)ccc31)C1CCC(C2)N1 (centres unmarked) [Example 51, 2-(4-Chlorophenyl)sulfonyl-5-methyl-5,6,7,8,9,10-hexahydro-7,10-epiminocyclohepta[b]indole hydrochloride]
melting point: 310 to 320 °C
Ki (human 5-HT6 receptor): 37 nM

Cl.Cn1c2c(c3cc(S(=O)(=O)c4cccc(F)c4)ccc31)C1CCC(C2)N1 (centres unmarked) [Example 35, 2-(3-Fluorophenyl)sulfonyl-5-methyl-5,6,7,8,9,10-hexahydro-7,10-epiminocyclohepta[b]indole hydrochloride]
melting point: 240 to 245 °C
Ki (human 5-HT6 receptor): 4.2 nM

CCOc1cc(S(=O)(=O)c2ccccc2)cc2c3c(n(C)c12)CC1CCC3N1.Cl (centres unmarked) [Example 84, 2-Phenylsulfonyl-4-ethoxy-5-methyl-5,6,7,8,9,10-hexahydro-7,10-epiminocyclohepta[b]indole hydrochloride]
melting point: 182 to 184 °C
Ki (human 5-HT6 receptor; hydrochloride): 1 nM

Cl.Cn1c2c(c3cc(S(=O)(=O)c4ccccc4)cc(OCc4ccccc4)c31)C1CCC(C2)N1 (centres unmarked) [Example 86, 2-Phenylsulfonyl-4-benzyloxy-5-methyl-5,6,7,8,9,10-hexahydro-7,10-epiminocyclohepta[b]indole hydrochloride]
melting point: 178 to 180 °C
Ki (human 5-HT6 receptor): 14 nM

Cc1cc(S(=O)(=O)c2ccccc2)cc2c3c(n(C)c12)CC1CCC3N1.Cl (centres unmarked) [Example 71, 2-Phenylsulfonyl-4,5-dimethyl-5,6,7,8,9,10-hexahydro-7,10-epiminocyclohepta[b]indole hydrochloride]
melting point: 244 to 248 °C
Ki (human 5-HT6 receptor): 3.3 nM

Cl.Cn1c2c(c3cc(S(=O)(=O)n4cc(Cl)c5ccccc54)ccc31)C1CCC(C2)N1 (centres unmarked) [Example 67, 2-[1-(3-Chloro)-indole]sulfonyl-5-methyl-5,6,7,8,9,10-hexahydro-7,10-epiminocyclohepta[b]indole hydrochloride]
melting point: 204 to 206 °C
Ki (human 5-HT6 receptor): 4.1 nM

Cc1cc(S(=O)(=O)c2ccc(N)cc2)cc2c3c(n(C)c12)CC1CCC3N1.Cl (centres unmarked) [Example 77, 2-(4-Amino-phenyl)sulfonyl-4,5-dimethyl-5,6,7,8,9,10-hexahydro-7,10-epiminocyclohepta[b]indole hydrochloride]
melting point: 244 to 246 °C
Ki (human 5-HT6 receptor): 4.9 nM

Cl.Cn1c2c(c3cc(S(=O)(=O)c4ccc(O)cc4)ccc31)C1CCC(C2)N1 (centres unmarked) [Example 32, 2-(4-Hydroxyphenyl)sulfonyl-5-methyl-5,6,7,8,9,10-hexahydro-7,10-epiminocyclohepta[b]indole hydrochloride]
melting point: 210 to 212 °C
Ki (human 5-HT6 receptor): 11 nM

Cl.Cn1c2c(c3cc(S(=O)(=O)c4cc(Cl)cc(Cl)c4)ccc31)C1CCC(C2)N1 (centres unmarked) [Example 54, 2-(3,5-Dichlorophenyl)sulfonyl-5-methyl-5,6,7,8,9,10-hexahydro-7,10-epiminocyclohepta[b]indole hydrochloride]
melting point: 190 to 195 °C
Ki (human 5-HT6 receptor): 10 nM

Cl.Cn1c2c(c3cc(S(=O)(=O)c4cncc(Cl)c4)ccc31)C1CCC(C2)N1 (centres unmarked) [Example 58, 2-[3-(5-Chloro)-pyridine]sulfonyl-5-methyl-5,6,7,8,9,10-hexahydro-7,10-epiminocyclohepta[b]indole hydrochloride]
melting point: 202 to 205 °C (dec.)
Ki (human 5-HT6 receptor): 44 nM

Cc1ccccc1S(=O)(=O)c1ccc2c(c1)c1c(n2C)CC2CCC1N2.Cl (centres unmarked) [Example 52, 2-(2-Methylphenyl)sulfonyl-5-methyl-5,6,7,8,9,10-hexahydro-7,10-epiminocyclohepta[b]indole hydrochloride]
melting point: 186 to 188 °C
Ki (human 5-HT6 receptor): 11 nM
